The record followed here is patent US10441663B2, “Methods for treating cancer” (Bicycle Therapeutics Limited, priority 2016, dated 2019).

*1 amine or outer side, *2 acyl side, *3 side chain or, on linkers, in order; H or OH if unused. Where a SMILES comes first, the peptide text is derived from it. Bridges are numbered along the chain shown (N, C = ends). [ ]: non-standard residue; d: D form. The star is where a group is joined. X1 = COc1cc2cc(c1Cl)N(C)C(=O)C[C@H](OC(=O)[C@H](C)N(C)C(=O)CCSSC(C)CCC(=O)*)[C@]1(C)O[C@H]1[C@H](C)[C@@H]1C[C@@](O)(NC(=O)O1)[C@H](OC)/C=C/C=C(\C)C2; 1Nal = N[C@@H](Cc1cccc2ccccc12)C(=O)O; TBMB = c1c(C[*:1])cc(C[*:3])cc1C[*:2]; Tle = CC(C)(C)[C@H](N)C(=O)O; βAla = NCCC(=O)O; Sar = CNCC(=O)O

For the assay, the system named is LU-01-0251 non-small-cell lung carcinoma (NSCLC) PDX model. As to the kind of experiment: Efficacy in LU-01-0251 NSCLC PDX model (high MT1-expressing, docetaxel sensitive). The format is in vivo, Balb/C nude mice. An excerpt:
The objective of the project is to evaluate the in vivo therapeutic efficacy of test articles in the LU-01-0251 non-small-cell lung carcinoma (NSCLC) PDX model. LU-01-0251 is a high MT1-expressing NSCLC that is docetaxel sensitive.
Each mouse was inoculated subcutaneously at the right flank with certain kind of tumor fragment (30 mm3) for tumor development. The treatments started when the average tumor volume reaches approximately 150-200 mm^3. The test article administration and the animal numbers in each group are shown in Table 40 which details the experimental design.
Treatment was given until the control tumors reached an average of 1000 mm^3.
Before commencement of treatment all animals will be weighed and the tumor volumes will be measured. Since the tumor volume can affect the effectiveness of any given treatment, mice will be assigned into groups using randomized block design based upon their tumor volumes.
The protocol and any amendment(s) or procedures involving the care and use of animals in this study will be reviewed and approved prior to conduct. […] At the time of routine monitoring, the animals will be checked for any effects of tumor growth and treatments on normal behavior such as mobility, food and water consumption, body weight gain/loss (body weights will be measured twice weekly), eye/hair matting and any other abnormal effect. Death and observed clinical signs will be recorded on the basis of the numbers of animals within each subset.
The major endpoint is to see if the tumor growth can be delayed or mice can be cured. Tumor sizes will be measured twice weekly in two dimensions using a caliper and the volume will be expressed in mm^3 using the formula: V=0.5 a×b^2 where a and b are the long and short diameters of the tumor, respectively. […] T-C is calculated with T as the median time (in days) required for the treatment group tumors to reach a predetermined size (e.g., 1.000 mm^3), and C is the median time (in days) for the control group tumors to reach the same size. […]
TGI is calculated for each group using the formula. […]

With `COc1cc2cc(c1Cl)N(C)C(=O)C[C@H](OC(=O)[C@H](C)N(C)C(=O)CCSSC(C)CCC(=O)NCCC(=O)N(C)CC(=O)N(C)CC(=O)N(C)CC(=O)N(C)CC(=O)N(C)CC(=O)N(C)CC(=O)N(C)CC(=O)N(C)CC(=O)N(C)CC(=O)N(C)CC(=O)N[C@@H](C)C(=O)N[C@H]1CSCc3cc4cc(c3)CSC[C@H](NC(=O)[C@@H](C)NC(=O)[C@H](Cc3cccc5ccccc35)NC(=O)[C@H](CCC(=O)O)NC(=O)[C@H](CC(N)=O)NC(=O)[C@@H](C)NC1=O)C(=O)N[C@@H](CCC(=O)O)C(=O)N[C@@H](CC(=O)O)C(=O)N[C@@H](Cc1ccccc1)C(=O)N[C@@H](Cc1ccc(O)cc1)C(=O)N[C@@H](CC(=O)O)C(=O)N[C@@H](C(C)(C)C)C(=O)N[C@H](C(N)=O)CSC4)[C@]1(C)O[C@H]1[C@H](C)[C@@H]1C[C@@](O)(NC(=O)O1)[C@H](OC)/C=C/C=C(\C)C2` (stereo partly drawn) [BT1718] ({X1-βAla}-[Sar][Sar][Sar][Sar][Sar][Sar][Sar][Sar][Sar][Sar]AC[dA]NE[1Nal][dA]CEDFYD[Tle]C-NH2; linker 12-18-25 via TBMB (inferred)), the tumor response entry (3 mg/kg biw) is listed as “tumor stasis”. Under “10 mg/kg biw”, the “relapse after cessation of dosing” value is listed as “lack of relapse” and the tumor response result was “tumor eradication”.
